Data: patent US12466854B2, “Peptide useful for the transport of molecules through cell barriers” (UNIVERSITÉ GRENOBLE ALPES, priority 2022, dated 2025)

Tested on: mice
Test: body temperature of mice after intravenous injection of peptides (hypothermia as reporter for crossing the BBB)
Type: in vivo
Settings: 2.5 mmol/kg intravenously; for hypothermia (variation in body temperature): monitored over 90 minutes
Method: Body temperature was monitored using Anipill® capsules previously implanted intraperitoneally.
The monitoring was carried out over 90 minutes.

Substance: TAT-NT: reference cell penetration peptide TAT fused to neurotensin, GRKKRRQRRRPQRRPYIL (SEQ ID NO: 8), positive control [reference compound]
- time following injection at which hypothermia was observed: 30 min
- hypothermia (variation in body temperature): approximately 1 degree Celsius

Substance: TB peptide: cell penetrating peptide of amino acid sequence RQRIWFQNRRRSRKIKK (SEQ ID NO: 1)
- hypothermia (variation in body temperature): no signs of hypothermia

Substance: TB-NT: TB peptide fused to neurotensin, sequence RQRIWFQNRRRSRKIKKRRPYIL (SEQ ID NO: 7)
- time following injection at which hypothermia was observed: 35 min
- hypothermia (variation in body temperature): approximately 3 degree Celsius
